Results published in PubChem BioAssay (NCI).
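Tested at 5 concentrations; 48 h exposure; 96-well plates; endpoints linearly interpolated, else capped at highest concentration. GI50: concentration for 50% inhibition of growth. The concentration for full growth arrest is given as TGI.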

Assays:
Assay in all cases: NCI tumour cell line growth inhibition, 48 h
786-0 renal = tested on: 786-0 renal
A498 renal = tested on: A498 renal
A549 NSCLC = tested on: A549 NSCLC
ACHN renal = tested on: ACHN renal
BT-549 breast = tested on: BT-549 breast
CAKI-1 renal = tested on: CAKI-1 renal
CCRF-CEM leukemia = tested on: CCRF-CEM leukemia
COLO 205 colon = tested on: COLO 205 colon
DU-145 prostate = tested on: DU-145 prostate
EKVX NSCLC = tested on: EKVX NSCLC
HCC-2998 colon = tested on: HCC-2998 colon
HCT-116 colon = tested on: HCT-116 colon
HCT-15 colon = tested on: HCT-15 colon
HL-60(TB) leukemia = tested on: HL-60(TB) leukemia
HOP-62 NSCLC = tested on: HOP-62 NSCLC
HOP-92 NSCLC = tested on: HOP-92 NSCLC
HS 578T breast = tested on: HS 578T breast
HT29 colon = tested on: HT29 colon
IGROV1 ovarian = tested on: IGROV1 ovarian
K-562 leukemia = tested on: K-562 leukemia
KM12 colon = tested on: KM12 colon
LOX IMVI melanoma = tested on: LOX IMVI melanoma
M14 melanoma = tested on: M14 melanoma
MALME-3M melanoma = tested on: MALME-3M melanoma
MCF7 breast = tested on: MCF7 breast
MDA-MB-231 breast = tested on: MDA-MB-231 breast
MDA-MB-435 = tested on: MDA-MB-435
MOLT-4 leukemia = tested on: MOLT-4 leukemia
NCI-H226 lung = tested on: NCI-H226 lung
NCI-H23 lung = tested on: NCI-H23 lung
NCI-H460 lung = tested on: NCI-H460 lung
NCI-H522 lung = tested on: NCI-H522 lung
NCI/ADR-RES ovarian = tested on: NCI/ADR-RES ovarian
OVCAR-3 ovarian = tested on: OVCAR-3 ovarian
OVCAR-4 ovarian = tested on: OVCAR-4 ovarian
OVCAR-5 ovarian = tested on: OVCAR-5 ovarian
OVCAR-8 ovarian = tested on: OVCAR-8 ovarian
PC-3 prostate = tested on: PC-3 prostate
RPMI-8226 leukemia = tested on: RPMI-8226 leukemia
SF-268 CNS = tested on: SF-268 CNS
SF-295 CNS = tested on: SF-295 CNS
SF-539 CNS = tested on: SF-539 CNS
SK-MEL-2 melanoma = tested on: SK-MEL-2 melanoma
SK-MEL-28 melanoma = tested on: SK-MEL-28 melanoma
SK-MEL-5 melanoma = tested on: SK-MEL-5 melanoma
SK-OV-3 ovarian = tested on: SK-OV-3 ovarian
SN12C renal = tested on: SN12C renal
SNB-19 CNS = tested on: SNB-19 CNS
SNB-75 CNS = tested on: SNB-75 CNS
SR leukemia = tested on: SR leukemia
SW-620 colon = tested on: SW-620 colon
T-47D breast = tested on: T-47D breast
TK-10 renal = tested on: TK-10 renal
U251 CNS = tested on: U251 CNS
UACC-257 melanoma = tested on: UACC-257 melanoma
UACC-62 melanoma = tested on: UACC-62 melanoma
UO-31 renal = tested on: UO-31 renal

Molecule `OCCCCC#Cc1ccccc1C#Cc1cccc(C(F)(F)F)c1` has a GI50 (786-0 renal) of 11.1 µM, a TGI (786-0 renal) of 34 µM and a GI50 (A498 renal) of 18.2 µM. It also gave a TGI (A498 renal) of 33.1 µM, a GI50 (A549 NSCLC) of 15.1 µM and a TGI (A549 NSCLC) of 28.6 µM. The GI50 (ACHN renal) was 18.3 µM, the TGI (ACHN renal) was 32.4 µM and the GI50 (BT-549 breast) was 16.4 µM. It also gave a TGI (BT-549 breast) of 30.7 µM, a GI50 (CAKI-1 renal) of 21.3 µM and a TGI (CAKI-1 renal) of 36.5 µM. It also gave a GI50 (CCRF-CEM leukemia) of 20.2 µM, a TGI (CCRF-CEM leukemia) of 38.2 µM and a GI50 (COLO 205 colon) of 19.2 µM. It also gave a TGI (COLO 205 colon) of 36.3 µM, a GI50 (DU-145 prostate) of 15.3 µM and a TGI (DU-145 prostate) of 29.9 µM. For the same molecule, the GI50 (EKVX NSCLC) was 17.9 µM, the TGI (EKVX NSCLC) was 34.7 µM and the GI50 (HCC-2998 colon) was 17.7 µM. It also gave a TGI (HCC-2998 colon) of 32.3 µM, a GI50 (HCT-116 colon) of 20.9 µM and a TGI (HCT-116 colon) of 49.8 µM. For the same molecule, the GI50 (HCT-15 colon) was 16.3 µM, the TGI (HCT-15 colon) was 30.8 µM and the GI50 (HL-60(TB) leukemia) was 24.6 µM. For the same molecule, the TGI (HL-60(TB) leukemia) was 59.5 µM, the GI50 (HOP-62 NSCLC) was 16.9 µM and the TGI (HOP-62 NSCLC) was 33.3 µM. It also gave a GI50 (HOP-92 NSCLC) of 19.9 µM, a TGI (HOP-92 NSCLC) of 36.2 µM and a GI50 (HS 578T breast) of 29.7 µM. The TGI (HS 578T breast) was 71.3 µM, the GI50 (HT29 colon) was 10.5 µM and the TGI (HT29 colon) was 23.4 µM. It also gave a GI50 (IGROV1 ovarian) of 14.4 µM, a TGI (IGROV1 ovarian) of 28.5 µM and a GI50 (K-562 leukemia) of 22.5 µM. It also gave a TGI (K-562 leukemia) of 71.5 µM, a GI50 (KM12 colon) of 16.2 µM and a TGI (KM12 colon) of 31.3 µM. The GI50 (LOX IMVI melanoma) was 17.5 µM, the TGI (LOX IMVI melanoma) was 31.8 µM and the GI50 (M14 melanoma) was 21.5 µM. For the same molecule, the TGI (M14 melanoma) was 50.5 µM, the GI50 (MALME-3M melanoma) was 26 µM and the TGI (MALME-3M melanoma) was 48.5 µM. It also gave a GI50 (MCF7 breast) of 21.2 µM, a TGI (MCF7 breast) of 42.7 µM and a GI50 (MDA-MB-231 breast) of 18.3 µM. It also gave a TGI (MDA-MB-231 breast) of 33.4 µM, a GI50 (MDA-MB-435) of 16.9 µM and a TGI (MDA-MB-435) of 31.6 µM. The GI50 (MOLT-4 leukemia) was 21.8 µM, the TGI (MOLT-4 leukemia) was 59.9 µM and the GI50 (NCI-H226 lung) was 18.3 µM. The TGI (NCI-H226 lung) was 34 µM, the GI50 (NCI-H23 lung) was 16.4 µM and the TGI (NCI-H23 lung) was 31.5 µM. For the same molecule, the GI50 (NCI-H460 lung) was 18.4 µM, the TGI (NCI-H460 lung) was 40.6 µM and the GI50 (NCI-H522 lung) was 16.6 µM. The TGI (NCI-H522 lung) was 33.6 µM, the GI50 (NCI/ADR-RES ovarian) was 15.5 µM and the TGI (NCI/ADR-RES ovarian) was 31.1 µM. It also gave a GI50 (OVCAR-3 ovarian) of 16.8 µM, a TGI (OVCAR-3 ovarian) of 31.6 µM and a GI50 (OVCAR-4 ovarian) of 14 µM. For the same molecule, the TGI (OVCAR-4 ovarian) was 28.1 µM, the GI50 (OVCAR-5 ovarian) was 17.5 µM and the TGI (OVCAR-5 ovarian) was 37.2 µM. The GI50 (OVCAR-8 ovarian) was 18.8 µM, the TGI (OVCAR-8 ovarian) was 35.7 µM and the GI50 (PC-3 prostate) was 18.2 µM. It also gave a TGI (PC-3 prostate) of 33.7 µM, a GI50 (RPMI-8226 leukemia) of 21.7 µM and a TGI (RPMI-8226 leukemia) of 40.6 µM. The GI50 (SF-268 CNS) was 19.1 µM, the TGI (SF-268 CNS) was 42.5 µM and the GI50 (SF-295 CNS) was 16.5 µM. For the same molecule, the TGI (SF-295 CNS) was 30.9 µM, the GI50 (SF-539 CNS) was 20.1 µM and the TGI (SF-539 CNS) was 38 µM. The GI50 (SK-MEL-2 melanoma) was 19.7 µM, the TGI (SK-MEL-2 melanoma) was 42.1 µM and the GI50 (SK-MEL-28 melanoma) was 12 µM. The TGI (SK-MEL-28 melanoma) was 25 µM, the GI50 (SK-MEL-5 melanoma) was 17.8 µM and the TGI (SK-MEL-5 melanoma) was 32.7 µM. For the same molecule, the GI50 (SK-OV-3 ovarian) was 19.7 µM, the TGI (SK-OV-3 ovarian) was 35.3 µM and the GI50 (SN12C renal) was 18.9 µM. It also gave a TGI (SN12C renal) of 33 µM, a GI50 (SNB-19 CNS) of 20.2 µM and a TGI (SNB-19 CNS) of 36.4 µM. The GI50 (SNB-75 CNS) was 14.6 µM, the TGI (SNB-75 CNS) was 29.3 µM and the GI50 (SR leukemia) was 18.3 µM. The TGI (SR leukemia) was greater than 100 µM, the GI50 (SW-620 colon) was 16.9 µM and the TGI (SW-620 colon) was 37 µM. It also gave a GI50 (T-47D breast) of 22 µM, a TGI (T-47D breast) of 44.5 µM and a GI50 (TK-10 renal) of 16.9 µM. For the same molecule, the TGI (TK-10 renal) was 32.2 µM, the GI50 (U251 CNS) was 17.2 µM and the TGI (U251 CNS) was 31.6 µM. For the same molecule, the GI50 (UACC-257 melanoma) was 16.7 µM, the TGI (UACC-257 melanoma) was 31.8 µM and the GI50 (UACC-62 melanoma) was 15.9 µM. It also gave a TGI (UACC-62 melanoma) of 29.5 µM, a GI50 (UO-31 renal) of 17.2 µM and a TGI (UO-31 renal) of 31.6 µM.
